# Assay results reported in US9169241B2, “Quinolinyloxyphenylsulfonamides” (Max-Planck-Gesellschaft Zur Forderung der Wissenschaften …, priority 2009, dated 2015).
# Legend:
# Hs578T [1] = assay: Matrigel outgrowth assay/branching assay; type: cell-based; conditions: Homo sapiens, Hs-578T; HS578T cell line; Table Ib; read-out: Total branching inhibition in Matrigel HS578T
# Procedure: The Matrigel outgrowth assay is based on the ability of tumor cell to penetrate a solid gel of extracellular matrix proteins mimicking the metastasis formation in vivo. While cells with low invasive potential appear as roundish cell or cell cluster, cells with high invasive potential penetrate the Matrigel and form polymorphic structures. In detail 65 μl of Matrigel matrix (Matrigel™ Matrix, BD Biosciences, Bedford, Mass., USA) with a concentration of 3 mg/ml have been polymerized in 96 well plates for 1 h at 37° C. Subsequently 5000 cell/well were seeded into each well containing cell culture medium and indicated compound with concentrations of 3.125 μM, 1.56 μM and 0.78 μM as well as DMSO control. After 48 h, 72 h and 96 h images of cell were taken on an inverted microscope using a 5× objective (Zeiss Axiovert S100 microscope Carl Zeiss UK, Welwyn Garden City, UK). Only compound concentrations were total branching inhibition was evident were accounted as positive. Method was used as previously described, with some modifications (Thompson E W, et al. Association of increased basement membrane invasiveness with absence of estrogen receptor and expression of vimentin in human breast cancer cell lines. J Cell Physiol 1992; 150:534-44).
# Hs578T [2] = assay: Wound healing migration assay; type: cell-based; conditions: Homo sapiens, Hs-578T; HS578T cell line; Table Ib
# Procedure: This method mimics cell migration during wound healing in vivo. The basic steps involve creating a “wound” in a cell monolayer, capturing the images at the beginning and at regular intervals during cell migration to close the wound, and comparing the images to quantify the migration rate of the cells. In detail, 150000 cell/24 well have been seeded and allowed to form a monolayer overnight. Subsequently a “wound” or “scratch” has been performed with a 1000 μl pipette tip. The STDV of wound size is normally below 10% at time point t0. The assay was stopped by fixation with 0.05% Crystal violet/20% methanol when control scratches were closed. The assay was terminated between 48 h and 72 h depending on the migration potential of the indicated cell line. The “wounds” were visualized with a Zeiss Axiovert S100 microscope (Carl Zeiss UK, Welwyn Garden City, UK). The tested compounds were used at 12.5 μM, 6.25, 3.125 μM and DMSO control. IC50 values have been calculated as 50% wound size in between t0 and t48 or t72.
# Hs578T [3] = assay: Cell vitality assay (ATP assay, CellTiter-Glo); type: cell-based; conditions: Homo sapiens, Hs-578T; HS578T cell line, 72 h; Table Ib; read-out: IC50 ATP-Assay HS578T after 72 h
# Procedure: The CellTiter-Glo® Luminescent Cell Viability Assay (Promega Corporation. Madison, Wis., USA) is method a determining the number of viable cells in culture based on quantification of the ATP being present which is an indicator of metabolically active cells was used according to manufacturers protocol, In detail the assay was performed in a 96 well format were 1000 cells/well were incubated with indicated compound at concentration of 12.5 μM, 6.25 μM, 3.125 μM, 1.56 μM, 0.78 μM, 0.39 μM, 0.195 μM as well as DMSO control for 72 h in 100 μl cell culture medium. IC50 values were calculated as 50% of ATP amount compared to DMSO control.
# Protocol for the CellTiter-Glo® Luminescent Cell Viability Assay • 1. Prepare opaque-walled multiwell plates with mammalian cells in culture medium, 100 μl per well for 96-well plates • 2. Prepare control wells containing medium without cells to obtain a value for background luminescence. • 3. Add the compound to be tested to experimental wells, and incubate according to culture protocol. • 4. Equilibrate the plate and its contents at room temperature for approximately 30 minutes. • 5. Add a volume of CellTiter-Glo® Reagent (Promega Corporation. Madison, Wis.) equal to the volume of cell culture medium present in each well. • 6. Mix contents for 2 minutes on an orbital shaker to induce cell lysis. • 7. Allow the plate to incubate at room temperature for 10 minutes to stabilize luminescent signal. • 8. Record luminescence on Microplate Luminometer LB96V (Berthold Tchnologies, Bad Wildbad, Germany). An integration time of 0.1 and 1 second per well
IC50 (Hs578T [2]) [µM],melting point [°C],Compound,IC50 (Hs578T [1]) [µM],IC50 (Hs578T [3]) [µM]
12.5 to 50,175 to 177,"COc1cc2c(Oc3cc(NS(=O)(=O)c4ccccc4C(F)(F)F)ccc3F)ccnc2cc1OCCCN1CCC(C)CC1 [Example 189, N-(4-Fluoro-3-{6-methoxy-7-[3-(4-methyl-piperidin-1-yl)-propoxy]-quinolin-4-yloxy}-phenyl)-2-trifluoromethyl-benzenesulfonamide]",10 to 25,12.5 to 50
12.5 to 50,147 to 149,"COc1cc2c(Oc3cccc(NS(=O)(=O)c4ccc(C)s4)c3)ccnc2cc1OCCCN1CCN(C)CC1 [Example 131, 5-Methyl-thiophene-2-sulfonic acid (3-{6-methoxy-7-[3-(4-methyl-piperazin-1-yl)-propoxy]-quinolin-4-yloxy}-phenyl)-amide]",10 to 25,≤ 12.5
12.5 to 50,219 to 220,"COc1cc2c(Oc3ccc(NS(=O)(=O)c4c[nH]c(C)n4)cc3F)ccnc2cc1OCCCN1CCCCC1C (centres unmarked) [Example 149, 2-Methyl-1H-imidazole-4-sulfonic acid (3-fluoro-4-{6-methoxy-7-[3-(2-methyl-piperidin-1-yl)-propoxy]-quinolin-4-yloxy}-phenyl)-amide]",10 to 25,12.5 to 50
12.5 to 50,225 to 226,"COc1cc2c(Oc3ccc(NS(=O)(=O)c4cnc(C)[nH]4)cc3F)ccnc2cc1OCCCN1CCC(C)CC1 [Example 168, 2-Methyl-3H-imidazole-4-sulfonic acid (3-fluoro-4-{6-methoxy-7-[3-(4-methyl-piperidin-1-yl)-propoxy]-quinolin-4-yloxy}-phenyl)-amide]",10 to 25,12.5 to 50
≤ 12.5,85 to 87,"COc1cc2c(Oc3cccc(NS(=O)(=O)/C=C/c4ccccc4)c3)ccnc2cc1OCCCN1CCN(C)CC1 [Example 143, 2-Phenyl-ethenesulfonic acid (3-{6-methoxy-7-[3-(4-methyl-piperazin-1-yl)-propoxy]-quinolin-4-yloxy}-phenyl)-amide]",≤ 10,≤ 12.5
12.5 to 50,227 to 228,"COc1ccc2nccc(Oc3ccc(NS(=O)(=O)c4c(F)cccc4F)cc3F)c2c1 [Example 200, 2,6-Difluoro-N-[3-fluoro-4-(6-methoxy-quinolin-4-yloxy)-phenyl]-benzenesulfonamide]",10 to 25,12.5 to 50
≤ 12.5,88 to 90,"COc1cc2c(Oc3ccc(NS(=O)(=O)c4c(C)nn(C)c4C)cc3F)ccnc2cc1OCCCN1CCC(C)CC1 [Example 160, 1,3,5-Trimethyl-1H-pyrazole-4-sulfonic acid (3-fluoro-4-{6-methoxy-7-[3-(4-methyl-piperidin-1-yl)-propoxy]-quinolin-4-yloxy}-phenyl)-amide]",10 to 25,≤ 12.5
12.5 to 50,84 to 86,"COC(=O)c1sccc1S(=O)(=O)Nc1cccc(Oc2ccnc3cc(OCCCN4CCN(C)CC4)c(OC)cc23)c1 [Example 135, 3-(3-{6-Methoxy-7-[3-(4-methyl-piperazin-1-yl)-propoxy]-quinolin-4-yloxy}-phenylsulfamoyl)-thiophene-2-carboxylic acid methyl ester]",10 to 25,12.5 to 50
12.5 to 50,176 to 177,"COc1cc2c(Oc3cccc(NS(=O)(=O)c4ccco4)c3)ccnc2cc1OCCCN1CCN(C)CC1 [Example 137, Furan-2-sulfonic acid (3-{6-methoxy-7-[3-(4-methyl-piperazin-1-yl)-propoxy]-quinolin-4-yloxy}-phenyl)-amide]",10 to 25,12.5 to 50
12.5 to 50,87 to 89,"COc1cc2c(Oc3cccc(NS(=O)(=O)c4ccn(C)n4)c3)ccnc2cc1OCCCN1CCN(C)CC1 [Example 139, 1-Methyl-1H-pyrazole-3-sulfonic acid (3-{6-methoxy-7-[3-(4-methyl-piperazin-1-yl)-propoxy]-quinolin-4-yloxy}-phenyl)-amide]",10 to 25,12.5 to 50
≤ 12.5,185 to 186,"COc1cc2c(Oc3cc(NS(=O)(=O)c4c(F)cccc4F)ccc3F)ccnc2cc1OCCCN1CCC(C)CC1 [Example 188, 2,6-Difluoro-N-(4-fluoro-3-{6-methoxy-7-[3-(4-methyl-piperidin-1-yl)-propoxy]-quinolin-4-yloxy}-phenyl)-benzenesulfonamide]",≤ 10,≤ 12.5
12.5 to 50,215 to 217,"COc1cc2c(Oc3ccc(NS(=O)(=O)c4cnc(C)[nH]4)cc3F)ccnc2cc1OCCCN1CCN(C)CC1 [Example 170, 2-Methyl-3H-imidazole-4-sulfonic acid (3-fluoro-4-{6-methoxy-7-[3-(4-methyl-piperazin-1-yl)-propoxy]-quinolin-4-yloxy}-phenyl)-amide]",10 to 25,12.5 to 50
≤ 12.5,176 to 178,"COc1cc2c(Oc3cccc(NS(=O)(=O)c4ccsc4)c3)ccnc2cc1OCCCN1CCN(C)CC1 [Example 133, Thiophene-3-sulfonic acid (3-{6-methoxy-7-[3-(4-methyl-piperazin-1-yl)-propoxy]-quinolin-4-yloxy}-phenyl)-amide]",≤ 10,≤ 12.5
12.5 to 50,80 to 81,"COc1cc2c(Oc3ccc(NS(=O)(=O)c4c(C)nn(C)c4C)cc3F)ccnc2cc1OCCCN1CCN(C)CC1 [Example 162, 1,3,5-Trimethyl-1H-pyrazole-4-sulfonic acid (3-fluoro-4-{6-methoxy-7-[3-(4-methyl-piperazin-1-yl)-propoxy]-quinolin-4-yloxy}-phenyl)-amide]",10 to 25,≤ 12.5
12.5 to 50,118 to 120,"COc1cc2c(Oc3cccc(NS(=O)(=O)c4c[nH]c(C)n4)c3)ccnc2cc1OCCCN1CCN(C)CC1 [Example 141, 2-Methyl-1H-imidazole-4-sulfonic acid (3-{6-methoxy-7-[3-(4-methyl-piperazin-1-yl)-propoxy]-quinolin-4-yloxy}-phenyl)-amide]",10 to 25,12.5 to 50
12.5 to 50,194 to 196,"COc1ccc2nccc(Oc3ccc(NS(=O)(=O)C4CC4)cc3F)c2c1 [Example 206, Cyclopropanesulfonic acid [3-fluoro-4-(6-methoxy-quinolin-4-yloxy)-phenyl]-amide]",10 to 25,12.5 to 50

Compound,IC50 (Hs578T [2]) [µM],melting point [°C],IC50 (Hs578T [1]) [µM],IC50 (Hs578T [3]) [µM]
"COc1cc2c(Oc3ccc(NS(=O)(=O)c4ccccc4C(F)(F)F)cc3F)ccnc2cc1OCCCNC(=O)OC(C)(C)C [Example 120, (3-{4-[2-Fluoro-4-(2-trifluoromethyl-benzenesulfonylamino)-phenoxy]-6-methoxy-quinolin-7-yloxy}-propyl)-carbamic acid tert-butyl ester]",12.5 to 50,80 to 82,10 to 25,12.5 to 50
